Measured values taken from patent US20060069132A1, “Azolecarboxamide herbicides” (priority 2004, published 2006).

Legend:
wild oat = test: Test B postemergence herbicide test; type: in vivo, Avena fatua; settings: postemergence, visual rating, scale 0 (no effect) to 100 (complete control)
Summary of the method: (§1)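 Each value is a visual 0–100 response rating taken against controls 13 to 15 days after treatment in the greenhouse. Plants received formulated chemical postemergence at the 1- to 4-leaf stage or, in flooded paddy, at the 2-leaf stage.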

corn = test: Test B pre-/postemergence herbicide test; type: in vivo, Zea mays; settings: for Corn plant response rating: postemergence, scale 0 (no effect) to 100 (complete control)
Summary of the method: (§2)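 Response was scored visually 13 to 15 days after treatment against untreated greenhouse controls, 0 meaning no effect and 100 complete control. Formulations (solvent mixture plus surfactant) went onto soil after planting, onto foliage of 1- to 4-leaf plants, and onto 2-leaf plants in a flooded paddy set including rice and barnyardgrass.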

blackgrass = test: Test B postemergence herbicide test; type: in vivo, Alopecurus myosuroides; settings: postemergence, visual rating, scale 0 (no effect) to 100 (complete control)
Summary of the method: (§3)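 Read-out: visual comparison with controls, scored 0 to 100, where 100 means complete control and 0 no effect. Formulated chemicals were applied postemergence to plants 2–18 cm tall (1- to 4-leaf), or to flooded-paddy plants at the 2-leaf stage, then held 13 to 15 days under glass.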

rice [1] = test: Test B flooded paddy test; type: in vivo, Oryza sativa; settings: 1000 g ai/ha, visual rating, scale 0 to 100 (0 no effect, 100 complete control), 13 to 15 days
Summary of the method: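 Postemergence plants were sprayed with formulated test chemicals at 2 to 18 cm height (1- to 4-leaf stage); paddy species were grown to the 2-leaf stage. After 13 to 15 days in a greenhouse, injury was rated visually against untreated controls on a 0–100 scale (0 = no effect, 100 = complete control).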

barnyardgrass [2] = test: Test B pre-/postemergence herbicide test; type: in vivo, Echinochloa crus-galli; settings: for Barnyardgrass plant response rating: postemergence, scale 0 (no effect) to 100 (complete control)
Summary of the method: (§4)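 Pre: seeds sown, then sprayed. Post: 1–4-leaf plants (2–18 cm) sprayed at the same time. Paddy: flooded, treated at 2-leaf stage. Formulation: non-phytotoxic solvent with surfactant. Greenhouse 13–15 days; visual 0–100 score relative to controls.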

morningglory = test: Test B pre-/postemergence herbicide test; type: in vivo, Ipomoea coccinea; settings: for Morningglory plant response rating: postemergence, scale 0 (no effect) to 100 (complete control)
Summary of the method: as §4

wheat = test: Test B postemergence herbicide test; type: in vivo, Triticum aestivum; design: key to Wheat plant response rating: 0 = no effect, 100 = complete control; settings: postemergence, visual rating, scale 0 (no effect) to 100 (complete control)
Summary of the method: as §1

pigweed = test: Test B pre-/postemergence herbicide test; type: in vivo, Amaranthus retroflexus; settings: for Pigweed plant response rating: postemergence, scale 0 (no effect) to 100 (complete control)
Summary of the method: as §2

cocklebur = test: Test B pre-/postemergence herbicide test; type: in vivo, Xanthium strumarium; settings: for Cocklebur plant response rating: postemergence, scale 0 (no effect) to 100 (complete control)
Summary of the method: as §4

rice [3] = test: Test B pre-/postemergence herbicide test; type: in vivo, Oryza sativa; settings: 0 = no effect, 100 = complete control, preemergence
Summary of the method: as §2

Surinam grass = test: Test B pre-/postemergence herbicide test; type: in vivo, Urochloa decumbens; settings: for Surinam Grass plant response rating: postemergence, scale 0 (no effect) to 100 (complete control)
Summary of the method: as §2

barnyardgrass [4] = test: Test B flooded paddy test; type: in vivo, Echinochloa crus-galli; settings: 1000 g ai/ha, visual rating, scale 0 to 100 (0 no effect, 100 complete control), 13 to 15 days
Summary of the method: as §3

large crabgrass = test: Test B pre-/postemergence herbicide test; type: in vivo, Digitaria sanguinalis; settings: for Crabgrass, Large plant response rating: postemergence, scale 0 (no effect) to 100 (complete control)
Summary of the method: as §2

ducksalad = test: Test B flooded paddy test; type: in vivo, Heteranthera limosa; settings: 1000 g ai/ha, visual rating, scale 0 to 100 (0 no effect, 100 complete control), 13 to 15 days
Summary of the method: as §3

velvetleaf = test: Test B pre-/postemergence herbicide test; type: in vivo, Abutilon theophrasti; settings: for Velvetleaf plant response rating: postemergence, scale 0 (no effect) to 100 (complete control)
Summary of the method: as §2

giant foxtail = test: Test B pre-/postemergence herbicide test; type: in vivo, Setaria faberi; settings: for Foxtail, Giant plant response rating: postemergence, scale 0 (no effect) to 100 (complete control)
Summary of the method: as §2

[5] = tested on: small flower umbrella sedge; test: Test B flooded paddy test; type: in vivo, Cyperus difformis; settings: 1000 g ai/ha, visual rating, scale 0 to 100 (0 no effect, 100 complete control), 13 to 15 days
Summary of the method: as §3

lambsquarters = test: Test B pre-/postemergence herbicide test; type: in vivo, Chenopodium album; settings: for Lambsquarters plant response rating: postemergence, scale 0 (no effect) to 100 (complete control)
Summary of the method: as §2

[6] = 125 g ai/ha, 0 = no effect, 100 = complete control, preemergence
[7] = 500 g ai/ha, visual rating, 0 = no effect, 100 = complete control, preemergence

For `CCN(CC)C(=O)c1cccc(NC(=O)c2nn(C(C)(C)C)cc2Br)c1` [Compound 220], the “Oat, Wild plant response rating” value (wild oat; 125 g ai/ha) was 0, the “Oat, Wild plant response rating” value (wild oat; 500 g ai/ha) was 10 and the “Corn plant response rating (0 to 100 scale)” value (corn; [6]) was 0. The “Plant response rating, Corn” value (corn; [7]) was 0, the “Corn plant response rating” value (corn; 125 g ai/ha, visual rating) was 10 and the “Corn plant response rating” value (corn; 500 g ai/ha, visual rating) was 10. The “Blackgrass plant response rating” value (blackgrass; 125 g ai/ha) was 0, the “Blackgrass plant response rating” value (blackgrass; 500 g ai/ha) was 0 and the “Rice plant response rating” value (rice [1]) was 0. For the same molecule, the “Barnyardgrass plant response rating (0 to 100 scale)” value (barnyardgrass [2]; [6]) was 0, the “Plant response rating, Barnyardgrass” value (barnyardgrass [2]; [7]) was 0 and the “Barnyardgrass plant response rating” value (barnyardgrass [2]; 125 g ai/ha, visual rating) was 0. For the same molecule, the “Barnyardgrass plant response rating” value (barnyardgrass [2]; 500 g ai/ha, visual rating) was 0, the “Morningglory plant response rating (0 to 100 scale)” value (morningglory; [6]) was 0 and the “Plant response rating, Morningglory” value (morningglory; [7]) was 0. For the same molecule, the “Morningglory plant response rating” value (morningglory; 125 g ai/ha, visual rating) was 0, the “Morningglory plant response rating” value (morningglory; 500 g ai/ha, visual rating) was 0 and the “Wheat plant response rating” value (wheat; 125 g ai/ha) was 0. The “Wheat plant response rating” value (wheat; 500 g ai/ha) was 0, the “Pigweed plant response rating (0 to 100 scale)” value (pigweed; [6]) was 0 and the “Plant response rating, Pigweed” value (pigweed; [7]) was 100. The “Pigweed plant response rating” value (pigweed; 125 g ai/ha, visual rating) was 10, the “Pigweed plant response rating” value (pigweed; 500 g ai/ha, visual rating) was 10 and the “Cocklebur plant response rating (0 to 100 scale)” value (cocklebur; [6]) was 0. The “Plant response rating, Cocklebur” value (cocklebur; [7]) was 0, the “Cocklebur plant response rating” value (cocklebur; 125 g ai/ha, visual rating) was 0 and the “Cocklebur plant response rating” value (cocklebur; 500 g ai/ha, visual rating) was 10. The “Rice plant response rating (0 to 100 scale)” value (rice [3]; 125 g ai/ha) was 0, the “Plant response rating, Rice” value (rice [3]; 500 g ai/ha, visual rating) was 0 and the “Surinam Grass plant response rating (0 to 100 scale)” value (Surinam grass; [6]) was 0. The “Plant response rating, Surinam Grass” value (Surinam grass; [7]) was 10, the “Surinam Grass plant response rating” value (Surinam grass; 125 g ai/ha, visual rating) was 0 and the “Surinam Grass plant response rating” value (Surinam grass; 500 g ai/ha, visual rating) was 10. The “Barnyardgrass plant response rating” value (barnyardgrass [4]) was 0, the “Crabgrass, Large plant response rating (0 to 100 scale)” value (large crabgrass; [6]) was 20 and the “Plant response rating, Crabgrass, Large” value (large crabgrass; [7]) was 100. For the same molecule, the “Crabgrass, Large plant response rating” value (large crabgrass; 125 g ai/ha, visual rating) was 10, the “Crabgrass, Large plant response rating” value (large crabgrass; 500 g ai/ha, visual rating) was 10 and the “Ducksalad plant response rating” value (ducksalad) was 40. For the same molecule, the “Velvetleaf plant response rating (0 to 100 scale)” value (velvetleaf; [6]) was 0, the “Plant response rating, Velvetleaf” value (velvetleaf; [7]) was 0 and the “Velvetleaf plant response rating” value (velvetleaf; 125 g ai/ha, visual rating) was 0. The “Velvetleaf plant response rating” value (velvetleaf; 500 g ai/ha, visual rating) was 0, the “Foxtail, Giant plant response rating (0 to 100 scale)” value (giant foxtail; [6]) was 0 and the “Plant response rating, Foxtail, Giant” value (giant foxtail; [7]) was 10. For the same molecule, the “Foxtail, Giant plant response rating” value (giant foxtail; 125 g ai/ha, visual rating) was 0, the “Foxtail, Giant plant response rating” value (giant foxtail; 500 g ai/ha, visual rating) was 10 and the “Sedge, Umbrella plant response rating” value [5] was 80. For the same molecule, the “Lambsquarters plant response rating (0 to 100 scale)” value (lambsquarters; [6]) was 0, the “Plant response rating, Lambsquarters” value (lambsquarters; [7]) was 70 and the “Lambsquarters plant response rating” value (lambsquarters; 125 g ai/ha, visual rating) was 10. For the same molecule, the “Lambsquarters plant response rating” value (lambsquarters; 500 g ai/ha, visual rating) was 20.
